{"source": "patent US11998610B2", "about": "“Conjugates and methods of using the same” (Flagship Pioneering Innovations V, Inc., priority 2018, dated 2024)", "key": {"[1]": {"tested_on": "E. coli CFT073 ATCC 700928 and/or E. coli Nissle 1917", "experiment": "Cell-based assay with ClbP with LCMS, ClbP positive strain", "conditions": "ClbP-encoding E. coli, 10 μM compound, 37° C., 20 h", "procedure,_shortened": "(§1)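 Compound (10 μM final) incubated 20 h at 37° C, aerobically, with 1:40-diluted overnight cultures of ClbP-positive E. coli or negative BL21(DE3), in duplicate, alongside uninoculated LB. Remaining parent quantified by LC-MS/MS (MRM) after acetonitrile quench, expressed as percent of media-alone.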"}, "[2]": {"tested_on": "WT ClbP", "experiment": "Assay with purified ClbP protein (LCMS)", "format": "biochemical, E. coli", "conditions": "20 μM WT ClbP, room temperature, 24 h"}, "[3]": {"tested_on": "E. coli BL21(DE3)", "experiment": "Cell-based assay with ClbP with LCMS, ClbP negative strain", "conditions": "10 μM compound, 37° C., 20 h", "procedure,_shortened": "as §1"}}, "note": "Non-standard residues stand in square brackets, D forms with d. Residues, ends and D or L forms follow the SMILES beside them. *: point of attachment. Myristoyl = CCCCCCCCCCCCCC(=O)*; Octanoyl = CCCCCCCC(=O)*", "data": [{"smiles": "CCCCCCCCCCCCCC(=O)N[C@H](CC(N)=O)C(=O)N[C@@H](C)C(=O)OC", "note": "[Example 1, Methyl tetradecanoyl-D-asparaginyl-L-alaninate] (Myristoyl-[dN]-Ala-OMe)", "values": [{"measurement": "% Remaining in ClbP Positve Relative to Media-Only", "setting": "[1]", "value": "+ (between 25-75% compound remaining in the 20 μM WT ClbP reaction relative to the no-enzyme control)"}, {"measurement": "Status (compound remaining in WT ClbP reaction relative to no-enzyme control)", "setting": "[2]; 500 μM compound", "value": "− (>75% compound remaining in the 20 μM WT ClbP reaction relative to the no-enzyme control)"}, {"measurement": "% Remaining in ClbP Negative Relative to Media-Only", "setting": "[3]", "value": "+ (between 25-75% compound remaining in the 20 μM WT ClbP reaction relative to the no-enzyme control)"}]}, {"smiles": "CCCCCCCC(=O)N[C@H](CC(N)=O)C(=O)N[C@@H](C)C(=O)OC", "note": "[Example 2, Methyl octanoyl-D-asparaginyl-L-alaninate] (Octanoyl-[dN]-Ala-OMe)", "values": [{"measurement": "% Remaining in ClbP Positve Relative to Media-Only", "setting": "[1]", "value": "++ (<25% compound remaining in the 20 μM WT ClbP reaction relative to the control)"}, {"measurement": "Status (compound remaining in WT ClbP reaction relative to no-enzyme control)", "setting": "[2]; 100 μM compound", "value": "++ (<25% compound remaining in the 20 μM WT ClbP reaction relative to the control)"}, {"measurement": "% Remaining in ClbP Negative Relative to Media-Only", "setting": "[3]", "value": "+ (between 25-75% compound remaining in the 20 μM WT ClbP reaction relative to the no-enzyme control)"}]}, {"smiles": "CCCCCCCC(=O)N[C@H](CCC(=O)O)C(=O)N[C@@H](C)C(=O)OC", "note": "[Example 9, (R)-5-(((S)-1-methoxy-1-oxopropan-2-yl)amino)-4-octanamido-5-oxopentanoic acid] (Octanoyl-[dE]-Ala-OMe)", "values": [{"measurement": "% Remaining in ClbP Positve Relative to Media-Only", "setting": "[1]", "value": "+ (between 25-75% compound remaining in the 20 μM WT ClbP reaction relative to the no-enzyme control)"}, {"measurement": "Status (compound remaining in WT ClbP reaction relative to no-enzyme control)", "setting": "[2]; 100 μM compound", "value": "− (>75% compound remaining in the 20 μM WT ClbP reaction relative to the no-enzyme control)"}, {"measurement": "% Remaining in ClbP Negative Relative to Media-Only", "setting": "[3]", "value": "− (>75% compound remaining in the 20 μM WT ClbP reaction relative to the no-enzyme control)"}]}, {"smiles": "CCCCCCCCCCCCCC(=O)N[C@H](CC(N)=O)C(=O)N[C@@H](C)CCC(=O)OC", "note": "[Example 21, Methyl (S)-4-((R)-4-amino-4-oxo-2-tetradecanamidobutanamido)pentanoate]", "values": [{"measurement": "% Remaining in ClbP Positve Relative to Media-Only", "setting": "[1]", "value": "+ (between 25-75% compound remaining in the 20 μM WT ClbP reaction relative to the no-enzyme control)"}, {"measurement": "Status (compound remaining in WT ClbP reaction relative to no-enzyme control)", "setting": "[2]; 100 μM compound", "value": "+ (between 25-75% compound remaining in the 20 μM WT ClbP reaction relative to the no-enzyme control)"}, {"measurement": "% Remaining in ClbP Negative Relative to Media-Only", "setting": "[3]", "value": "− (>75% compound remaining in the 20 μM WT ClbP reaction relative to the no-enzyme control)"}]}]}
